ChEMBL document CHEMBL1138859, “Synthesis and Src kinase inhibitory activity of a series of 4-[(2,4-dichloro-5-methoxyphenyl)amino]-7-furyl-3-quinolinecarbonitriles” (J Med Chem, 2006)
In brackets after ≈: the same amount, converted by molar mass.

Key:
[1] = biological target: Vascular endothelial growth factor receptor 2 (Homo sapiens, UniProt P35968); assay: Inhibition of KDR
[2] = biological target: T1, 3-phosphoinositide-dependent protein kinase 1 (Homo sapiens, UniProt O15530); assay: Inhibitory activity against PDK1
T1 sequence (O15530 whole entry): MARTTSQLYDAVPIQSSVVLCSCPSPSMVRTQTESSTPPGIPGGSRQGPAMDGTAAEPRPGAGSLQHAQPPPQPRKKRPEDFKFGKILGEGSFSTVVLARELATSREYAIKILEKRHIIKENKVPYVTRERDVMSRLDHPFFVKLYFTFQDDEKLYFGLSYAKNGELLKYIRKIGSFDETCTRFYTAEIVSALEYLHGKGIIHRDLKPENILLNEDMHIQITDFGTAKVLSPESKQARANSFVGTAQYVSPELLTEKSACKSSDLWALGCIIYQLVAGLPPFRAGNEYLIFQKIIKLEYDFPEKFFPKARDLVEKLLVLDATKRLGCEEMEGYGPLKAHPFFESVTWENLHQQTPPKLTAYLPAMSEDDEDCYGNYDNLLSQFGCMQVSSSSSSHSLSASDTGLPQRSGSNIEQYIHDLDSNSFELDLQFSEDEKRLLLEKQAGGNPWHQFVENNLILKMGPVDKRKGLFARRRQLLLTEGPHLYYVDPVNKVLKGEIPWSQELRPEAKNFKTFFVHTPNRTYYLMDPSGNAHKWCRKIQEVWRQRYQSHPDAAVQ

[3] = biological target: Epidermal growth factor receptor (Homo sapiens, UniProt P00533); assay: Inhibitory activity against EGFR
[4] = Permeability by PAMPA assay; type: ADME; details: read-out: permeability
[5] = Solubility at pH 4.5; type: physicochemical; details: buffer
[6] = Stability in rat liver microsomes after 30 min; type: ADME, Microsome; details: read-out: Stability
[7] = Stability in nude mouse liver microsomes; type: ADME, Microsome
[8] = Plasma concentration in nude mouse after 4 hrs at 50 mg/kg, po; type: ADME, organism-based; parameters: dose 50 mg/kg, route oral
[9] = Plasma concentration in nude mouse after 8 hrs at 50 mg/kg, po; type: ADME, organism-based; parameters: dose 50 mg/kg, route oral
[10] = Plasma concentration in nude mouse after 24 hrs at 50 mg/kg, po; type: ADME, organism-based; parameters: dose 50 mg/kg, route oral
[11] = test system: HT-29; assay: Antitumor activity against HT29 cells xenografted in nude mouse after 21 days at 150 mg/kg, po; type: functional, Homo sapiens
[12] = biological target: Proto-oncogene tyrosine-protein kinase Src (Homo sapiens, UniProt P12931); assay: Inhibition of Src
[13] = biological target: Cyclin-dependent kinase 4 (Homo sapiens, UniProt P11802); assay: Inhibition of CDK4
[14] = biological target: RAC-alpha serine/threonine-protein kinase (Homo sapiens, UniProt P31749); assay: Inhibition of AKT
[15] = test system: Mus musculus; assay: Toxicity in nude mouse at 150 mg/kg, po; type: organism-based; parameters: dose 150 mg/kg, route oral; details: in vivo

Chain of RAC-alpha serine/threonine-protein kinase (P31749 whole entry): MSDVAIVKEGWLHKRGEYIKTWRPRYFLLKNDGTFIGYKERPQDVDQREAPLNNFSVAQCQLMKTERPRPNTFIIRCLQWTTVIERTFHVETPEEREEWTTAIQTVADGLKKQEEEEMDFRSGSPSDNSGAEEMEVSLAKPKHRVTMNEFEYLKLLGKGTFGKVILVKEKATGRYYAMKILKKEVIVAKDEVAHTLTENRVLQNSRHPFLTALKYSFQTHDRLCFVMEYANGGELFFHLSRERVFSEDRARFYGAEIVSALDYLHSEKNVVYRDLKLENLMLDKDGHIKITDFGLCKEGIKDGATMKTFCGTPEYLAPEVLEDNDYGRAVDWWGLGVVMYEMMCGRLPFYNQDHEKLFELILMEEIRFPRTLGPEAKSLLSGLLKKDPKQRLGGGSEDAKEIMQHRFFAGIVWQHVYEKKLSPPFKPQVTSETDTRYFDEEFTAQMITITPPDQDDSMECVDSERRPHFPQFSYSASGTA
Chain of Epidermal growth factor receptor (P00533 whole entry): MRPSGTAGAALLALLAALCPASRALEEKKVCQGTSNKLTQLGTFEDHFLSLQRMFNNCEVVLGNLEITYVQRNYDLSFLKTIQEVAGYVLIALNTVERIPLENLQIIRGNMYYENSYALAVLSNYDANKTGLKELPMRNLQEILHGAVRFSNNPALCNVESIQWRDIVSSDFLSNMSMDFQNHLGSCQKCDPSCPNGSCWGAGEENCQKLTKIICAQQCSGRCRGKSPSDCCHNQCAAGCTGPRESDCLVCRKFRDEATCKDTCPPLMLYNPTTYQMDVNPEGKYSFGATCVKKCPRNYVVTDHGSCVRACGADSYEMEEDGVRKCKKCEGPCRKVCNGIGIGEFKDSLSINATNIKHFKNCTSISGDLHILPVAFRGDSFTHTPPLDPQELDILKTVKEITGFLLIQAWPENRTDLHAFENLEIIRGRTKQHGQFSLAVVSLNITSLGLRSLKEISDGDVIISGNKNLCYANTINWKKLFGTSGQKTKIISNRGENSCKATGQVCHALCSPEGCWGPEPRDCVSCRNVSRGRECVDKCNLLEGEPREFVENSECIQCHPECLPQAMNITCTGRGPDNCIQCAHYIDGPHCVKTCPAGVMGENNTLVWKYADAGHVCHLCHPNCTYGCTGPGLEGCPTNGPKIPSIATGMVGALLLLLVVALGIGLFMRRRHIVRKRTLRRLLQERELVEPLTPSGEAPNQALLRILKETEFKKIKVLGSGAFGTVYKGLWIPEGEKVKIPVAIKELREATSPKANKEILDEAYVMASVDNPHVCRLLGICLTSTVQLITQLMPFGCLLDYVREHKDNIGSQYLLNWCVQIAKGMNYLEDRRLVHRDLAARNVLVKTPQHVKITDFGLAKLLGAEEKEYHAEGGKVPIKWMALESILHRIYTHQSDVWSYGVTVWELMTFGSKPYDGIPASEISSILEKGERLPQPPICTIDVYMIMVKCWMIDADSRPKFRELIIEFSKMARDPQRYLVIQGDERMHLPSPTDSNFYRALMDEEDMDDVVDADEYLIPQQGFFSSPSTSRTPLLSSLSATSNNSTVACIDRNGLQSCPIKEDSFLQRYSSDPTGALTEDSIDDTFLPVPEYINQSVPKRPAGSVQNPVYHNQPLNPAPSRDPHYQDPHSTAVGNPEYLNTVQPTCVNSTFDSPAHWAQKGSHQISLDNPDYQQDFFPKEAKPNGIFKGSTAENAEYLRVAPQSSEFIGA
Chain of Vascular endothelial growth factor receptor 2 (P35968 whole entry): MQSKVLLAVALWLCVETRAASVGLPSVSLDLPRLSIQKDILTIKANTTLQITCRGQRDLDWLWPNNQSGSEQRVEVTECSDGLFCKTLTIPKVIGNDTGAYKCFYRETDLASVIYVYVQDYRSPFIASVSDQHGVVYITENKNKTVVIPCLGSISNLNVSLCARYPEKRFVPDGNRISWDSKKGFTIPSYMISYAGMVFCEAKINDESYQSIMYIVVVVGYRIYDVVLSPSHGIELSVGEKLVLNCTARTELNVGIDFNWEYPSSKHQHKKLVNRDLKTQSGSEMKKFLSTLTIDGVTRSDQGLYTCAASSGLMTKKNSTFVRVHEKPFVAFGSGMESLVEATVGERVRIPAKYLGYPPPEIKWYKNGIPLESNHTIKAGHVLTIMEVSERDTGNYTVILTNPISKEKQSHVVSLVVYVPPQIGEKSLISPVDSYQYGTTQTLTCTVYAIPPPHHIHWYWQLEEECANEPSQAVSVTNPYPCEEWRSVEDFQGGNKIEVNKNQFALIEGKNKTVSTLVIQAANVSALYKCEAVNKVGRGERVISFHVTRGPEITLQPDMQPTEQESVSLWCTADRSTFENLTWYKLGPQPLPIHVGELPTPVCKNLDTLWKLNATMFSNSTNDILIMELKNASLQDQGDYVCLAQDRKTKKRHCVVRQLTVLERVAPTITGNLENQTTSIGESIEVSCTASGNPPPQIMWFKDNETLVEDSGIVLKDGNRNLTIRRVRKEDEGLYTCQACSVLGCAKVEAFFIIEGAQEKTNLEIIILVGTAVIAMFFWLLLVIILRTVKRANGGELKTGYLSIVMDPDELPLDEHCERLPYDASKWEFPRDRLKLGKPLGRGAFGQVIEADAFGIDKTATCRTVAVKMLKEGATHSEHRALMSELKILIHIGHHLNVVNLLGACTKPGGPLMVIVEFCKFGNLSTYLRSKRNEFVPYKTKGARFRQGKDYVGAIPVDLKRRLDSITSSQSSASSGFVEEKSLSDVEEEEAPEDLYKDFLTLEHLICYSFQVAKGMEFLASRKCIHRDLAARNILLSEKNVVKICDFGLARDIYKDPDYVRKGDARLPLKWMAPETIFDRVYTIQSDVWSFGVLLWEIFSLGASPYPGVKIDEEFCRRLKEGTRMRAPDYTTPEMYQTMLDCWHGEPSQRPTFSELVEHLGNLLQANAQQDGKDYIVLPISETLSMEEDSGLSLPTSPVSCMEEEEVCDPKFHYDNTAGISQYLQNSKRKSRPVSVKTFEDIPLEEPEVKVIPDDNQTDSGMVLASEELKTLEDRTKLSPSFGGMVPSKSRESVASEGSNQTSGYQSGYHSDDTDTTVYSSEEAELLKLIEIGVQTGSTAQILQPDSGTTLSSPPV
Chain of Proto-oncogene tyrosine-protein kinase Src (P12931 2-536 limits assumed): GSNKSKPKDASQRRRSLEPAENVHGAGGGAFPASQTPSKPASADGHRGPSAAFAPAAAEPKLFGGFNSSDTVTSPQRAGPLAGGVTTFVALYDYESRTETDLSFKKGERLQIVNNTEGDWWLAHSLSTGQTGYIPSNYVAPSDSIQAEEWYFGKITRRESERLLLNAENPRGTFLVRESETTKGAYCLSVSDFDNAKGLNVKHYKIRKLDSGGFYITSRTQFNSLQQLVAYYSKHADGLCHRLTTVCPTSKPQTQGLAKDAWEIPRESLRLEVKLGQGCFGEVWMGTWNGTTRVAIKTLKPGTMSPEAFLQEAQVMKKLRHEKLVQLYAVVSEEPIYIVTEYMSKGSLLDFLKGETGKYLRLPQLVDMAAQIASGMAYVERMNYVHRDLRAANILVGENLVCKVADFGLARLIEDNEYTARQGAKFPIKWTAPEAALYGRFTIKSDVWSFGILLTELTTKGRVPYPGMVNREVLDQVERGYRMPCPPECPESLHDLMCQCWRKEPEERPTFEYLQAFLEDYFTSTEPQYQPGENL
Chain of Cyclin-dependent kinase 4 (P11802 whole entry): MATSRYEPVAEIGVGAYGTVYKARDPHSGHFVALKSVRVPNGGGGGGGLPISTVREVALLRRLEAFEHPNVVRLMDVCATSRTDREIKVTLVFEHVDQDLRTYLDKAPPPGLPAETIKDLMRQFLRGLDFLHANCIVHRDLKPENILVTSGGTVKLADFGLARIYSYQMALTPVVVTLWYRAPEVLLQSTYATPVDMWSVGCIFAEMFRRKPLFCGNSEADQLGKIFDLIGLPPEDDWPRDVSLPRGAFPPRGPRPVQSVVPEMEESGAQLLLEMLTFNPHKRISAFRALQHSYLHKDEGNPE

IC50 [1]: > 1000 nM
IC50 [2]: > 1000 nM
IC50 [3]: 230 nM
Papp [4]: 2 ×10⁻⁶ cm/s
solubility [5]: 63 µg/mL (≈ 114 µM)
remaining at 0.5 h [6]: 72%
half-life [7]: 32 min
concentration at 4 h [8]: 1140 ng/mL
concentration at 8 h [9]: 1030 ng/mL
concentration at 24 h [10]: 103 ng/mL
IC50 [12]: 0.78 nM
IC50 [13]: > 1000 nM
IC50 [14]: > 1000 nM
SMILES: COc1cc(Nc2c(C#N)cnc3cc(-c4coc(CN5CCN(C)CC5)c4)c(OC)cc23)c(Cl)cc1Cl
Activity [11]: 38%
Activity [15]: Non-toxic
